Measurements taken from PubChem BioAssay AID1259411 (Chemical Carcinogenesis Research Information System (CCRIS), 2018).
Calls of active or inactive are those of the source. No rule for the calls is given here.

Tested on: rodent carcinogenicity bioassays, tumor incidence
Test: CCRIS carcinogenicity studies
Procedure, shortened: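 Archive of carcinogenicity, mutagenicity, tumor promotion and tumor inhibition results drawn from journals, NCI reports and other sources, expert-reviewed; covers 1985-2011 and is no longer updated.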

SMILES: N[C@@H](CC(=O)O)C(=O)O
- carcinogen call (Species: RAT, Strain/Sex: F344/FEMALE, Route: ORAL, Dose: 0, 2.5, 5% IN DRINKING WATER FOR 100 WK (STUDY DURATION: 100 WK), Dose: 0, 2.5, 5% IN DRINKING WATER FOR 100 WK (STUDY DURATION: 100 WK)): inactive; negative
- carcinogen call (Species: RAT, Strain/Sex: F344/MALE, Route: ORAL, Dose: 0, 2.5, 5% IN DRINKING WATER FOR 100 WK (STUDY DURATION: 100 WK), Dose: 0, 2.5, 5% IN DRINKING WATER FOR 100 WK (STUDY DURATION: 100 WK)): inactive; negative

SMILES: O=c1cc(CO)occ1O
- carcinogen call (Species: MOUSE, Strain/Sex: B6C3F1/FEMALE, Route: ORAL, Dose: 0, 1.5, 3% IN DIET FOR 20 MONTHS (STUDY DURATION: 20 MONTHS), Dose: 0, 1.5, 3% IN DIET FOR 20 MONTHS (STUDY DURATION: 20 MONTHS), Tumor Site: Type of Lesion: THYROID: ADENOMA. LIVER: HEPATOMA): active; positive
- carcinogen call (Species: MOUSE, Strain/Sex: B6C3F1/MALE, Route: ORAL, Dose: 0, 1.5, 3% IN DIET FOR 20 MONTHS (STUDY DURATION: 20 MONTHS), Dose: 0, 1.5, 3% IN DIET FOR 20 MONTHS (STUDY DURATION: 20 MONTHS), Tumor Site: Type of Lesion: THYROID: ADENOMA): active; positive
- carcinogen call (Species: Rat, Strain/Sex: F344/Male (20/experimental group (10 killed at 31 wk & 10 killed at 44 wk); 15/controls), Route: Oral, Dose: Kojic acid at 2.0% in drinking water for 31 wk, recovery for 13 wk, study duration 44 wk, Dose: Kojic acid at 2.0% in drinking water for 31 wk, recovery for 13 wk, study duration 44 wk, Tumor Site: Type of Lesion: Thyroid: 1 adenoma at 44 wk): inactive; negative (however, significantly greater increase in thyroid follicular cell hyp

SMILES: COc1cc2c(c3oc(=O)c4c(c13)CCOC4=O)[C@@H]1C=CO[C@@H]1O2
- carcinogen call (Species: HUMAN, Route: ORAL, Tumor Site: Type of Lesion: LIVER): active; positive
- carcinogen call (Species: RAT, Route: ORAL, Tumor Site: Type of Lesion: KIDNEY): active; positive

SMILES: O=C(O)CNCP(=O)(O)O
- carcinogen call (Species: RAT, Strain/Sex: WISTAR/FEMALE, Route: ORAL, Dose: 0, 300, 900, 2700 MG/L IN DRINKING WATER FOR 2 YR (STUDY DURATION: 2 YR), Dose: 0, 300, 900, 2700 MG/L IN DRINKING WATER FOR 2 YR (STUDY DURATION: 2 YR)): inactive; negative
- carcinogen call (Species: RAT, Strain/Sex: WISTAR/MALE, Route: ORAL, Dose: 0, 300, 900, 2700 MG/L IN DRINKING WATER FOR 2 YR (STUDY DURATION: 2 YR), Dose: 0, 300, 900, 2700 MG/L IN DRINKING WATER FOR 2 YR (STUDY DURATION: 2 YR)): inactive; negative
- carcinogen call (Species: Rat, Strain/Sex: Sprague-Dawley/Female (50/Group), Route: Oral, Dose: 0, 2000, 8000, 20,000 ppm of 96.5% glyphosate, isopropylamine salt in diet for 24 mo, study duration 24 mo, Dose: 0, 2000, 8000, 20,000 ppm of 96.5% glyphosate, isopropylamine salt in diet for 24 mo, study duration 24 mo, Tumor Site: Type of Lesion: Adrenal cortex: carcinoma (3/50 in high dose group vs 0 in all other groups)): active; positive. (department of pesticides regulation reviewer describes as a possible
- carcinogen call (Species: Rat, Strain/Sex: Sprague-Dawley/Male (50/Group), Route: Oral, Dose: 0, 2000, 8000, 20,000 ppm of 96.5% glyphosate, isopropylamine salt in diet for 24 mo, study duration 24 mo, Dose: 0, 2000, 8000, 20,000 ppm of 96.5% glyphosate, isopropylamine salt in diet for 24 mo, study duration 24 mo): inactive; negative

SMILES: NC(=O)OC1CO1 (stereo not given)
- carcinogen call (Species: MOUSE, Strain/Sex: B6C3F1/MALE, Route: INTRAPERITONEAL, Dose: 0, 0.5, 1.25, 2.5 UG/G BW IN 10 µL TRIOCTANOIN ONCE (STUDY DURATION: 9 MO), Dose: 0, 0.5, 1.25, 2.5 UG/G BW IN 10 µL TRIOCTANOIN ONCE (STUDY DURATION: 9 MO), Tumor Site: Type of Lesion: LIVER: HEPATOMA): active; positive
- carcinogen call (Species: MOUSE, Strain/Sex: CD-1/FEMALE, Route: DERMAL, Dose: 0, 11.5 UMOL IN WEEKS 1 AND 2 THEN 5.7 UMOL IN WEEKS 3 AND 4 FOLLOWED BY 3.8 UMOL/WK FOR 28 WK (STUDY DURATION: 42 WK), Tumor Site: Type of Lesion: SKIN: PAPILLOMA, CARCINOMA): active; positive
- carcinogen call (Species: MOUSE, Strain/Sex: STRAIN-A/FEMALE, Route: INTRAPERITONEAL, Dose: 0, 34, 68 NMOL/G BW IN 5 µL TRIOCTANOIN ONCE (STUDY DURATION: 6 MO), Dose: 0, 34, 68 NMOL/G BW IN 5 µL TRIOCTANOIN ONCE (STUDY DURATION: 6 MO), Tumor Site: Type of Lesion: LUNG: ADENOMA): active; positive
- carcinogen call (Species: RAT, Strain/Sex: SPRAGUE-DAWLEY/FEMALE, Route: INTRAMUSCULAR, Dose: 0, 1.15, 2.30 UMOL IN 0.25 ML TRIOCTANOIN 1/WK FOR 10 WK (STUDY DURATION: 18 MO), Dose: 0, 1.15, 2.30 UMOL IN 0.25 ML TRIOCTANOIN 1/WK FOR 10 WK (STUDY DURATION: 18 MO), Tumor Site: Type of Lesion: INJECTION SITE: SARCOMA, MAMMARY GLAND: TUMOR): active; positive
